# Test results as given in publication PMC7913291, “Synthesis and Anti-Hepatocarcinoma Effect of Amino Acid Derivatives of Pyxinol and Ocotillol” (Molecules, 2021).
# Test system: HepG2 cells
# Assay: Cytotoxic activity on HepG2 cells (CCK-8 assay)
# Type: cell-based
# Conditions: Homo sapiens, HepG2; CCK-8, 48 h, mean of three experiments ±SD; read-out: IC50 over HepG2 cells
# Protocol: Human hepatocellular liver carcinoma cell line (HepG2) were obtained from Institute of Biochemistry and Cell Biology, Academy of Science (Shanghai, China) and were authenticated using the STR profiling method. HepG2 cells were cultured in MDEM (Gibco, Waltham, MA, USA) supplemented with 10% fetal bovine serum (FBS) and 1% penicillin-streptomycin bubbled with 5% CO2-enriched air at a temperature of 37 °C (Thermo Scientific, Waltham, MA, USA). The cytotoxic effect of compounds on HepG2 cells was assessed by using CCK-8 method. Briefly, HepG2 cells were cultured in 96-well plates at a density of 5 × 10^3 cells per well for 24 h. […] Three replicates were performed. The relative cell viability was expressed as percentage relative to the untreated cells. The inhibition ratio was calculated. The IC50 values were calculated using Logistic regression from three independent tests.
row,SMILES,IC50
1,"CSCC[C@H](NC(=O)OC(C)(C)C)C(=O)O[C@H]1CC[C@@]2(C)C([C@@H](O)C[C@]3(C)C2C[C@@H](O)C2C([C@]4(C)CC[C@H](C(C)(C)O)O4)CC[C@]23C)C1(C)C (stereo partly drawn) [3b, (20S, 24R)-Epoxy-3β-O-(Boc-L-methinyl)-dammarane-6α,12β,25-triol]",88.6 ± 5.03 µM
2,"CSCC[C@H](N)C(=O)O[C@H]1CC[C@@]2(C)C(CC[C@]3(C)C2C[C@@H](O)C2C([C@]4(C)CC[C@H](C(C)(C)O)O4)CC[C@]23C)C1(C)C (stereo partly drawn) [2b, (20S, 24R)-Epoxy-3β-O-(L-methinyl)-dammarane-12β, 25-diol]",20.3 ± 2.04 µM
3,"CC(C)[C@H](NC(=O)OC(C)(C)C)C(=O)O[C@H]1CC[C@@]2(C)C(CC[C@]3(C)C2C[C@@H](O)C2C([C@]4(C)CC[C@H](C(C)(C)O)O4)CC[C@]23C)C1(C)C (stereo partly drawn) [1f, (20S, 24R)-Epoxy-3β-O-(Boc-L-valyl)-dammarane-12β, 25-diol]",62.1 ± 3.78 µM
4,"CC(C)(C)OC(=O)N1CCCC1C(=O)O[C@H]1CC[C@@]2(C)C(CC[C@]3(C)C2C[C@@H](O)C2C([C@]4(C)CC[C@H](C(C)(C)O)O4)CC[C@]23C)C1(C)C (stereo partly drawn) [1e, (20S, 24R)-Epoxy-3β-O-(Boc-L-prolyl)-dammarane-12β, 25-diol]",30.5 ± 2.98 µM
5,"C[C@H](NC(=O)OC(C)(C)C)C(=O)O[C@H]1CC[C@@]2(C)C([C@@H](O)C[C@]3(C)C2C[C@@H](O)C2C([C@]4(C)CC[C@H](C(C)(C)O)O4)CC[C@]23C)C1(C)C (stereo partly drawn) [3a, (20S, 24R)-Epoxy-3β-O-(Boc-L-alanyl)-dammarane-6α,12β,25-triol]",61 ± 1.57 µM
6,"CSCC[C@H](N)C(=O)O[C@H]1CC[C@@]2(C)C([C@@H](O)C[C@]3(C)C2C[C@@H](O)C2C([C@]4(C)CC[C@H](C(C)(C)O)O4)CC[C@]23C)C1(C)C (stereo partly drawn) [4b, (20S, 24R)-Epoxy-3β-O-(L-methinyl)-dammarane-6α,12β,25-triol]",50.6 ± 0.62 µM
7,"CC(C)C[C@H](NC(=O)OC(C)(C)C)C(=O)O[C@H]1CC[C@@]2(C)C([C@@H](O)C[C@]3(C)C2C[C@@H](O)C2C([C@]4(C)CC[C@H](C(C)(C)O)O4)CC[C@]23C)C1(C)C (stereo partly drawn) [3d, (20S, 24R)-Epoxy-3β-O-(Boc-L-leucyl)-dammarane-6α,12β,25-triol]",74.9 ± 2.87 µM
8,"CC(C)C[C@H](N)C(=O)O[C@H]1CC[C@@]2(C)C([C@@H](O)C[C@]3(C)C2C[C@@H](O)C2C([C@]4(C)CC[C@H](C(C)(C)O)O4)CC[C@]23C)C1(C)C (stereo partly drawn) [4d, (20S, 24R)-Epoxy-3β-O-(L-leucyl)-dammarane-6α,12β,25-triol]",35.4 ± 1.59 µM
9,"C[C@H](NC(=O)OC(C)(C)C)C(=O)O[C@H]1CC[C@@]2(C)C(CC[C@]3(C)C2C[C@@H](O)C2C([C@]4(C)CC[C@H](C(C)(C)O)O4)CC[C@]23C)C1(C)C (stereo partly drawn) [1a, (20S, 24R)-Epoxy-3β-O-(Boc-L-alanyl)-dammarane-12β, 25-diol]",26.3 ± 0.72 µM
10,"CC(C)C[C@H](NC(=O)OC(C)(C)C)C(=O)O[C@H]1CC[C@@]2(C)C(CC[C@]3(C)C2C[C@@H](O)C2C([C@]4(C)CC[C@H](C(C)(C)O)O4)CC[C@]23C)C1(C)C (stereo partly drawn) [1d, (20S, 24R)-Epoxy-3β-O-(Boc-L-leucyl)-dammarane-12β,25-diol]",73.1 ± 1.67 µM
11,"CC(C)[C@H](N)C(=O)O[C@H]1CC[C@@]2(C)C(CC[C@]3(C)C2C[C@@H](O)C2C([C@]4(C)CC[C@H](C(C)(C)O)O4)CC[C@]23C)C1(C)C (stereo partly drawn) [2f, (20S, 24R)-Epoxy-3β-O-(L-valyl)-dammarane-12β, 25-diol]",19.7 ± 1.96 µM
12,"CSCC[C@H](NC(=O)OC(C)(C)C)C(=O)O[C@H]1CC[C@@]2(C)C(CC[C@]3(C)C2C[C@@H](O)C2C([C@]4(C)CC[C@H](C(C)(C)O)O4)CC[C@]23C)C1(C)C (stereo partly drawn) [1b, (20S, 24R)-Epoxy-3β-O-(Boc-L-methinyl)-dammarane-12β, 25-diol]",73.5 ± 2.6 µM
13,CC(C)(O)C1CCC(C)(C2CCC3(C)C2C(O)CC2C4(C)CCC(O)C(C)(C)C4CCC23C)O1 (centres unmarked) [Pyxinol],74.5 ± 1.09 µM
14,"CC(C)[C@H](N)C(=O)O[C@H]1CC[C@@]2(C)C([C@@H](O)C[C@]3(C)C2C[C@@H](O)C2C([C@]4(C)CC[C@H](C(C)(C)O)O4)CC[C@]23C)C1(C)C (stereo partly drawn) [4f, (20S, 24R)-Epoxy-3β-O-(L-valyl)-dammarane-6α,12β,25-triol]",44.7 ± 3.07 µM
15,"CC(C)C[C@H](N)C(=O)O[C@H]1CC[C@@]2(C)C(CC[C@]3(C)C2C[C@@H](O)C2C([C@]4(C)CC[C@H](C(C)(C)O)O4)CC[C@]23C)C1(C)C (stereo partly drawn) [2d, (20S, 24R)-Epoxy-3β-O-(L-leucyl)-dammarane-12β, 25-diol]",20.1 ± 3.49 µM
16,"C[C@H](N)C(=O)O[C@H]1CC[C@@]2(C)C([C@@H](O)C[C@]3(C)C2C[C@@H](O)C2C([C@]4(C)CC[C@H](C(C)(C)O)O4)CC[C@]23C)C1(C)C (stereo partly drawn) [4a, (20S, 24R)-Epoxy-3β-O-(L-alanyl)-dammarane-6α,12β,25-triol]",34 ± 0.9 µM
17,"C[C@H](N)C(=O)O[C@H]1CC[C@@]2(C)C(CC[C@]3(C)C2C[C@@H](O)C2C([C@]4(C)CC[C@H](C(C)(C)O)O4)CC[C@]23C)C1(C)C (stereo partly drawn) [2a, (20S, 24R)-Epoxy-3β-O-(L-alanyl)-dammarane-12β, 25-diol]",16.5 ± 1.66 µM
18,"CC(C)(C)OC(=O)NCC(=O)O[C@H]1CC[C@@]2(C)C([C@@H](O)C[C@]3(C)C2C[C@@H](O)C2C([C@]4(C)CC[C@H](C(C)(C)O)O4)CC[C@]23C)C1(C)C (stereo partly drawn) [3c, (20S, 24R)-Epoxy-3β-O-(Boc-L-glycyl)-dammarane-6α,12β,25-triol]",32.6 ± 1.55 µM
19,"CC(C)(C)OC(=O)NCC(=O)O[C@H]1CC[C@@]2(C)C(CC[C@]3(C)C2C[C@@H](O)C2C([C@]4(C)CC[C@H](C(C)(C)O)O4)CC[C@]23C)C1(C)C (stereo partly drawn) [1c, (20S, 24R)-Epoxy-3β-O-(Boc-L-glycyl)-dammarane-12β, 25-diol]",26.6 ± 1.52 µM
20,"CC(C)(O)[C@H]1CC[C@@](C)(C2CC[C@]3(C)C2[C@H](O)CC2[C@@]4(C)CC[C@H](OC(=O)CN)C(C)(C)C4[C@@H](O)C[C@]23C)O1 (stereo partly drawn) [4c, (20S, 24R)-Epoxy-3β-O-(-L-glycyl)-dammarane-6α,12β,25-triol]",20.6 ± 2.47 µM
21,"CC(C)(O)[C@H]1CC[C@@](C)(C2CC[C@]3(C)C2[C@H](O)CC2[C@@]4(C)CC[C@H](OC(=O)C5CCCN5)C(C)(C)C4[C@@H](O)C[C@]23C)O1 (stereo partly drawn) [4e, (20S, 24R)-Epoxy-3β-O-(L-prolyl)-dammarane-6α,12β,25-triol]",24.6 ± 0.35 µM
22,"CC(C)[C@H](NC(=O)OC(C)(C)C)C(=O)O[C@H]1CC[C@@]2(C)C([C@@H](O)C[C@]3(C)C2C[C@@H](O)C2C([C@]4(C)CC[C@H](C(C)(C)O)O4)CC[C@]23C)C1(C)C (stereo partly drawn) [3f, (20S, 24R)-Epoxy-3β-O-(Boc-L-valyl)-dammarane-6α,12β,25-triol]",80.1 ± 2.03 µM
23,"CC(C)(O)[C@H]1CC[C@@](C)(C2CC[C@]3(C)C2[C@H](O)CC2[C@@]4(C)CC[C@H](OC(=O)CN)C(C)(C)C4CC[C@]23C)O1 (stereo partly drawn) [2c, (20S, 24R)-Epoxy-3β-O-(L-glycyl)-dammarane-12β, 25-diol]",16.3 ± 0.31 µM
24,"CC(C)(C)OC(=O)N1CCCC1C(=O)O[C@H]1CC[C@@]2(C)C([C@@H](O)C[C@]3(C)C2C[C@@H](O)C2C([C@]4(C)CC[C@H](C(C)(C)O)O4)CC[C@]23C)C1(C)C (stereo partly drawn) [3e, (20S, 24R)-Epoxy-3β-O-(Boc-L-prolyl)-dammarane-6α,12β,25-triol]",41.8 ± 2.58 µM

# Test system: not given
# Assay: not given
# Conditions: rats; cited from earlier work
SMILES,oral bioavailability,t1/2
CC(C)(O)C1CCC(C)(C2CCC3(C)C2C(O)CC2C4(C)CCC(O)C(C)(C)C4CCC23C)O1 (centres unmarked) [Pyxinol],low,short
